# Measurements: patent US20090176772A1, “METHOD OF REVERSING LEFT VENTRICULAR REMODELING” (priority 2004, published 2009)
# Legend:
# Assay type in all cases: in vivo, dog
# [1] = test system: dogs with chronic heart failure produced by multiple sequential intracoronary microembolizations; test: Hemodynamic measurements in dogs with chronic heart failure, 3 months oral therapy
# Excerpt: (§1) The following example examines the effects of ranolazine alone and in combination with an angiotensin converting enzyme (ACE) inhibitor and in combination with a beta-blocker on the progression of left ventricular (LV) dysfunction and LV chamber remodeling in dogs with chronic heart failure produced by multiple sequential intracoronary microembolizations.
# (§2) Chronic LV dysfunction and failure in dogs was produced by multiple sequential intracoronary embolizations with polystyrene Latex microspheres (77-109 μm in diameter) as previously described by Sabbah et al. (1991) Am. J. Physiol. 260:H1379-H1384. Coronary microembolizations were performed during cardiac catheterization under general anesthesia and sterile conditions. Anesthesia was induced using a combination of intravenous injections of hydromorphone (0.22 mg/kg), diazepam (0.2-0.6 mg/kg) and sodium pentobarbital 50-100 mg to effect. Plane of anesthesia was maintained throughout the study using 1% to 2% isoflurane. Left and right heart catheterization was performed via a femoral arteriotomy and venotomy. After each catheterization, the vessels were repaired using 6-0 silk and the skin closed with 4-0 suture. Microembolizations were discontinued when LV ejection fraction, determined angiographically, was between 30% and 40%. A period of 2 weeks was allowed after the last embolization to ensure that infarctions produced by the last microembolizations have completely healed and heart failure was established. The study protocol was then performed.
# (§3) Healthy, conditioned, purpose-bred mongrel dogs weighing between 19 and 25 kg.
# (§4) A randomized, blinded, placebo controlled study design was used. A total of 28 dogs underwent multiple sequential intracoronary microembolizations as described above to produce chronic heart failure. Two weeks after the last embolization, dogs were randomized into 4 study groups (treatment arms). Dogs were randomized to 3 months oral therapy with ranolazine alone (375 mg, bid, n=7), ranolazine (375 mg bid) in combination with metoprolol tartrate (25 mg bid, n=7), ranolazine (375 mg bid) in combination with enalapril (10 mg bid, n=7), or placebo (ranolazine vehicle bid, n=7). Hemodynamic, angiographic, echocardiographic, Doppler and neurohumoral measurements were made prior to randomization (2 weeks after the last embolization) and after completion of therapy (3 months after initiating therapy). After completing the final hemodynamic and angiographic study, dogs were euthanized and the hearts removed and tissue prepared and saved for future histological and biochemical evaluations. The study primary and secondary end-points were as follows:
# All hemodynamic measurements were made during left and right heart catheterizations in anesthetized dogs. Baseline measurements, prior to any microembolizations, were be made to ensure that all hemodynamic parameters are within normal limits. Abnormal dogs were excluded from the study. The following parameters were measured in all dogs at all three study time periods: heart rate, mean aortic pressure, peak rate of change of LV pressure during isovolumic contraction (peak+dP/dt) and relaxation (peak−dP/dt), and LV end-diastolic pressure.
# To ensure that all study measures were similar at baseline, comparisons were made between all 4 study groups before any embolizations and at the time of randomization before initiation of therapy. For these comparisons, a one way analysis of variance (ANOVA) was used with a set at 0.05. If significance was attained, then group wise comparisons were made using the Student-Newman-Kuels test with significance set at p≦0.05. Within group comparisons between pre-treatment and post-treatment measures were made using a Students paired t-test with p<0.05 considered significant. To assess treatment effect, the change (Δ) in each measure from pre-treatment to post-treatment was calculated for each of the 4 study arms. […]
# [2] = test system: dogs with chronic heart failure produced by multiple sequential intracoronary microembolizations; test: Histomorphometric evaluations of LV tissue of dogs with chronic heart failure
# Excerpt: as §1, §2, §3, §4
# On the day of sacrifice, after completion of all hemodynamic and angiographic studies, the dog's chest was opened through a left thoracotomy, the pericardium was opened and the heart rapidly removed and placed in ice-cold, Tris buffer (pH 7.4). Three 2 mm thick transverse slices were obtained from the LV; one slice from the basal third, one from the middle third and one from the apical third and placed in 10% formalin. Transmural blocks were also obtained and rapidly frozen in isopentane cooled to −160° C. by liquid nitrogen and stored at −70° C. until needed. LV tissue samples were also obtained and stored in gluteraldehyde for future scanning and transmission electron microscopic studies.
# From each heart, 3 transverse slices one from the basal third, middle third and apical third of the LV, each […], were obtained. For comparison, tissue samples from 7 normal dogs were obtained and prepared in an identical manner. From each transverse slice, transmural tissue blocks were obtained and embedded in paraffin blocks. From each block, 6 μm thick sections were prepared and stained with Gomori trichrome to identify fibrous tissue. […]
# [3] = test system: dogs with chronic heart failure produced by multiple sequential intracoronary microembolizations; test: Echocardiographic and Doppler measurements in dogs with chronic heart failure; settings: mean±SEM
# Excerpt: as §1, §2, §3, §4
# Echocardiographic and Doppler studies were performed in all dogs at all specified study time points using a 77030A ultrasound system (Hewlett-Packard) with a 3.5 MHZ transducer. All echocardiographic measurements were made with the dog placed in the right lateral decubitus position and recorded on a Panasonic 6300 VHS recorder for subsequent off-line analysis. Transverse 2-dimensional echocardiograms were obtained at the level of the LV papillary muscle and were used to calculate LV fractional area of shortening. The latter was calculated as the end-diastolic LV cavity area minus the end-systolic cavity area divided by the end-diastolic cavity area times 100. Two chamber view 2-dimensional echocardiograms were also obtained to ascertain LV major and minor semiaxes to be used for calculation of LV end-diastolic circumferential wall stress. Wall stress was calculated as follows: Stress=Pb/h(1−h/2b)(1−hb/2a2), where P is LV end-diastolic pressure, a is LV major semiaxis, b is LV minor semiaxis, and h is LV wall thickness.
# Mitral inflow velocity was measured by pulsed-wave Doppler echocardiography. The velocity waveforms were used to calculate peak mitral flow velocity in early diastole (PE), peak mitral inflow velocity during LA contraction (PA), the ratio of PE to PA and early mitral inflow deceleration time. […]
# [4] = POST: after 3 months of oral therapy bid, mean±SEM
# [5] = PRE: at time of randomization, before therapy, mean±SEM
# [6] = change from pre-treatment to post-treatment (3 months), mean±SEM
# [7] = POST: after 3 months of oral therapy bid
# [8] = PRE: at time of randomization, before therapy
# [9] = change from pre-treatment to post-treatment (3 months)
smiles,measurement,setting,value
"COc1ccccc1OCC(O)CN1CCN(CC(=O)Nc2c(C)cccc2C)CC1 (racemic) [RAN Alone, (±)-N-(2,6-dimethylphenyl)-4-[2-hydroxy-3-(2-methoxyphenoxy)-propyl]-1-piperazineacetamide]",+dP/dt = peak LV +dP/dt,[1]; [4],1416 ± 124 mmHg/sec
same,HR = heart rate,[1]; [4],80 ± 4 beats/min
same,LVEDP = LV end-diastolic pressure,[1]; [4],10 ± 1 mmHg
same,mAoP = mean aortic pressure,[1]; [4],81 ± 7 mmHg
same,−dP/dt = peak LV −dP/dt,[1]; [4],1460 ± 134 mmHg/sec
same,+dP/dt = peak LV +dP/dt,[1]; [5],1253 ± 119 mmHg/sec
same,HR = heart rate,[1]; [5],77 ± 2 beats/min
same,LVEDP = LV end-diastolic pressure,[1]; [5],14 ± 1 mmHg
same,mAoP = mean aortic pressure,[1]; [5],72 ± 3 mmHg
same,−dP/dt = peak LV −dP/dt,[1]; [5],1254 ± 74 mmHg/sec
same,"LV end-diastolic pressure, intra-group comparison pre- vs post-treatment",[1]; at the end of 3 months of treatment,decreased significantly
same,Δ +dP/dt (peak LV +dP/dt),[1]; [6],163 ± 81 mmHg/sec
same,Δ HR (heart rate),[1]; [6],3.3 ± 4.9 beats/min
same,Δ LVEDP (LV end-diastolic pressure),[1]; [6],−4.4 ± 1.1 mmHg
same,Δ mAoP (mean aortic pressure),[1]; [6],9.1 ± 6.9 mmHg
same,Δ −dP/dt (peak LV −dP/dt),[1]; [6],206 ± 109 mmHg/sec
same,VFRF = volume fraction of replacement fibrosis,"[2]; LV tissue after 3 months of therapy, mean±SEM, normal dogs 0 ± 0, placebo 14.6 ± 1.2",10.5 ± 2.1 %
same,VFIF = volume fraction of interstitial fibrosis,"[2]; LV tissue after 3 months of therapy, mean±SEM, normal dogs 3.7 ± 0.1, placebo 13.0 ± 0.7",11.0 ± 0.4 %
same,ODD = oxygen diffusion distance,"[2]; LV tissue after 3 months of therapy, mean±SEM, normal dogs 8.9 ± 0.2, placebo 11.5 ± 0.3",10.9 ± 0.2 μm
same,MCSA = myocyte cross-sectional area,"[2]; LV tissue after 3 months of therapy, mean±SEM, normal dogs 409 ± 10, placebo 772 ± 21",685 ± 23 μm2
same,CD = capillary density,"[2]; LV tissue after 3 months of therapy, mean±SEM, normal dogs 2607 ± 80, placebo 1706 ± 28",1832 ± 43 capillaries/mm2
same,"Histomorphometric measures (myocyte cross-sectional area, replacement and interstitial fibrosis, oxygen diffusion distance, capillary density) compared to placebo",[2]; after 3 months of therapy,significantly improved
same,DT = deceleration time,[3]; [7],87 ± 4 ms
same,EDWS = LV end-diastolic circumferential wall stress,[3]; [7],42 ± 4 gm-cm^2
same,FAS = LV fractional area of shortening,[3]; [7],29 ± 2%
same,MR = severity of mitral regurgitation,[3]; [7],10.1 ± 1.3%
same,PE/PA (mitral inflow velocity ratio),[3]; [7],2.8 ± 0.3
same,DT = deceleration time,[3]; [8],88 ± 3 ms
same,EDWS = LV end-diastolic circumferential wall stress,[3]; [8],56 ± 5 gm-cm^2
same,FAS = LV fractional area of shortening,[3]; [8],28 ± 1%
same,MR = severity of mitral regurgitation,[3]; [8],11.3 ± 1.9%
same,PE/PA (mitral inflow velocity ratio),[3]; [8],2.7 ± 0.3
same,Δ DT (deceleration time),[3]; [9],-1 ± 4 ms
same,Δ EDWS (LV end-diastolic circumferential wall stress),[3]; [9],−14.5 ± 5.2 gm-cm^2
same,Δ FAS (LV fractional area of shortening),[3]; [9],1 ± 1 %
same,Δ MR (severity of mitral regurgitation),[3]; [9],−1.2 ± 1.1%
same,Δ PE/PA,[3]; [9],0.0 ± 0.4
